The values below come from ChEMBL document CHEMBL4610025, “Discovery of a follistatin-derived myostatin inhibitory peptide” (Bioorg Med Chem Lett, 2020).

This experiment concerns the target Growth/differentiation factor 8 (Homo sapiens) (UniProt O14793). In words: Inhibition of myostatin (unknown origin) expressed in HEK293 cells at 10 uM incubated for 4 hrs by dual luciferase reporter gene assay. The class given is cell-based. A general note: Reporter assays use an easily measured gene product as a stand-in for the process of interest.

Activity calls are given as the source filed them. No cut-off for these calls is given here. Residues, ends and D or L forms follow the SMILES beside them.

Chain of Growth/differentiation factor 8 (Homo sapiens) (O14793 267-375 limits assumed): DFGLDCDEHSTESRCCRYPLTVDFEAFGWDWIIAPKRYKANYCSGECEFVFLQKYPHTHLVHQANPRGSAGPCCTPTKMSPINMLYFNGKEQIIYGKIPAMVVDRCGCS

Turning to `CC[C@H](C)[C@H](NC(=O)[C@H](CCSC)NC(=O)[C@H](Cc1c[nH]c2ccccc12)NC(=O)[C@H](CCCCN)NC(=O)[C@H](Cc1ccccc1)NC(=O)[C@H](CC(C)C)NC(=O)[C@@H](NC(=O)[C@H](CC(N)=O)NC(=O)[C@H](CC(=O)O)NC(=O)[C@H](CC(N)=O)NC(=O)[C@H](C)N)[C@@H](C)O)C(=O)N[C@@H](Cc1ccccc1)C(=O)N[C@@H](CC(N)=O)C(=O)NCC(N)=O` (H-ANDNTLFKWMIFNG-NH2), the inhibition result is “inactive”. In the case of `CC[C@H](C)[C@H](NC(=O)[C@H](CCSC)NC(=O)[C@H](Cc1c[nH]c2ccccc12)NC(=O)[C@H](CCCCN)NC(=O)[C@H](Cc1ccccc1)NC(=O)[C@H](CC(C)C)NC(=O)[C@@H](NC(=O)[C@H](CC(N)=O)NC(=O)[C@H](CC(=O)O)NC(=O)[C@H](CC(N)=O)NC(=O)[C@@H](NC(=O)[C@H](CC(=O)O)NC(=O)[C@H](CCC(=O)O)NC(=O)[C@@H](N)CCC(=O)O)C(C)C)[C@@H](C)O)C(=O)N[C@@H](Cc1ccccc1)C(=O)N[C@@H](CC(N)=O)C(=O)NCC(N)=O` (H-EEDVNDNTLFKWMIFNG-NH2) it was “inactive”.

With `CC[C@H](C)[C@H](NC(=O)[C@H](CCSC)NC(=O)[C@H](Cc1c[nH]c2ccccc12)NC(=O)[C@H](CCCCN)NC(=O)[C@H](Cc1ccccc1)NC(=O)[C@H](CC(C)C)NC(=O)[C@@H](NC(=O)[C@H](CC(N)=O)NC(=O)[C@H](CC(=O)O)NC(=O)[C@@H](N)CC(N)=O)[C@@H](C)O)C(=O)N[C@@H](Cc1ccccc1)C(=O)N[C@@H](CC(N)=O)C(N)=O` (H-NDNTLFKWMIFN-NH2), the inhibition result is “Active”. In the case of `CC[C@H](C)[C@H](NC(=O)[C@H](CCSC)NC(=O)[C@H](Cc1c[nH]c2ccccc12)NC(=O)[C@H](CCCCN)NC(=O)[C@H](Cc1ccccc1)NC(=O)[C@H](CC(C)C)NC(=O)[C@@H](NC(=O)[C@H](CC(N)=O)NC(=O)[C@H](CC(=O)O)NC(=O)[C@@H](N)CC(N)=O)[C@@H](C)O)C(=O)N[C@@H](Cc1ccccc1)C(=O)N[C@@H](CC(N)=O)C(=O)NCC(N)=O` (H-NDNTLFKWMIFNG-NH2) it was “inactive”; in that of `CC[C@H](C)[C@H](NC(=O)[C@H](CCSC)NC(=O)[C@H](Cc1c[nH]c2ccccc12)NC(=O)[C@H](CCCCN)NC(=O)[C@H](Cc1ccccc1)NC(=O)[C@H](CC(C)C)NC(=O)[C@@H](NC(=O)[C@H](CC(N)=O)NC(=O)[C@H](CC(=O)O)NC(=O)[C@H](C)NC(=O)[C@@H](N)C(C)C)[C@@H](C)O)C(=O)N[C@@H](Cc1ccccc1)C(=O)N[C@@H](CC(N)=O)C(=O)NCC(N)=O` (H-VADNTLFKWMIFNG-NH2), “inactive”; in that of `CC[C@H](C)[C@H](NC(=O)[C@H](CCSC)NC(=O)[C@H](Cc1c[nH]c2ccccc12)NC(=O)[C@H](CCCCN)NC(=O)[C@H](Cc1ccccc1)NC(=O)[C@H](CC(C)C)NC(=O)[C@@H](NC(=O)[C@H](CC(N)=O)NC(=O)[C@H](C)NC(=O)[C@H](CC(N)=O)NC(=O)[C@@H](N)C(C)C)[C@@H](C)O)C(=O)N[C@@H](Cc1ccccc1)C(=O)N[C@@H](CC(N)=O)C(=O)NCC(N)=O` (H-VNANTLFKWMIFNG-NH2), “Active”.

For the compound `CC[C@H](C)[C@H](NC(=O)[C@H](CCSC)NC(=O)[C@H](Cc1c[nH]c2ccccc12)NC(=O)[C@H](CCCCN)NC(=O)[C@H](Cc1ccccc1)NC(=O)[C@H](CC(C)C)NC(=O)[C@@H](NC(=O)[C@H](C)NC(=O)[C@H](CC(=O)O)NC(=O)[C@H](CC(N)=O)NC(=O)[C@@H](N)C(C)C)[C@@H](C)O)C(=O)N[C@@H](Cc1ccccc1)C(=O)N[C@@H](CC(N)=O)C(=O)NCC(N)=O` (H-VNDATLFKWMIFNG-NH2), the inhibition entry is “Active”. As to `CC[C@H](C)[C@H](NC(=O)[C@H](CCSC)NC(=O)[C@H](Cc1c[nH]c2ccccc12)NC(=O)[C@H](CCCCN)NC(=O)[C@H](Cc1ccccc1)NC(=O)[C@H](CC(C)C)NC(=O)[C@H](C)NC(=O)[C@H](CC(N)=O)NC(=O)[C@H](CC(=O)O)NC(=O)[C@H](CC(N)=O)NC(=O)[C@@H](N)C(C)C)C(=O)N[C@@H](Cc1ccccc1)C(=O)N[C@@H](CC(N)=O)C(=O)NCC(N)=O` (H-VNDNALFKWMIFNG-NH2), the inhibition entry was “inactive”. Under `CC[C@H](C)[C@H](NC(=O)[C@H](CCSC)NC(=O)[C@H](Cc1c[nH]c2ccccc12)NC(=O)[C@H](CCCCN)NC(=O)[C@H](Cc1ccccc1)NC(=O)[C@H](C)NC(=O)[C@@H](NC(=O)[C@H](CC(N)=O)NC(=O)[C@H](CC(=O)O)NC(=O)[C@H](CC(N)=O)NC(=O)[C@@H](N)C(C)C)[C@@H](C)O)C(=O)N[C@@H](Cc1ccccc1)C(=O)N[C@@H](CC(N)=O)C(=O)NCC(N)=O` (H-VNDNTAFKWMIFNG-NH2) stands “inactive”. Under `CC[C@H](C)[C@H](NC(=O)[C@H](CCSC)NC(=O)[C@H](Cc1c[nH]c2ccccc12)NC(=O)[C@H](CCCCN)NC(=O)[C@H](C)NC(=O)[C@H](CC(C)C)NC(=O)[C@@H](NC(=O)[C@H](CC(N)=O)NC(=O)[C@H](CC(=O)O)NC(=O)[C@H](CC(N)=O)NC(=O)[C@@H](N)C(C)C)[C@@H](C)O)C(=O)N[C@@H](Cc1ccccc1)C(=O)N[C@@H](CC(N)=O)C(=O)NCC(N)=O` (H-VNDNTLAKWMIFNG-NH2) stands “inactive”; under `CC[C@H](C)[C@H](NC(=O)[C@H](CCSC)NC(=O)[C@H](Cc1c[nH]c2ccccc12)NC(=O)[C@H](C)NC(=O)[C@H](Cc1ccccc1)NC(=O)[C@H](CC(C)C)NC(=O)[C@@H](NC(=O)[C@H](CC(N)=O)NC(=O)[C@H](CC(=O)O)NC(=O)[C@H](CC(N)=O)NC(=O)[C@@H](N)C(C)C)[C@@H](C)O)C(=O)N[C@@H](Cc1ccccc1)C(=O)N[C@@H](CC(N)=O)C(=O)NCC(N)=O` (H-VNDNTLFAWMIFNG-NH2), “inactive”; under `CC[C@H](C)[C@H](NC(=O)[C@H](CCSC)NC(=O)[C@H](C)NC(=O)[C@H](CCCCN)NC(=O)[C@H](Cc1ccccc1)NC(=O)[C@H](CC(C)C)NC(=O)[C@@H](NC(=O)[C@H](CC(N)=O)NC(=O)[C@H](CC(=O)O)NC(=O)[C@H](CC(N)=O)NC(=O)[C@@H](N)C(C)C)[C@@H](C)O)C(=O)N[C@@H](Cc1ccccc1)C(=O)N[C@@H](CC(N)=O)C(=O)NCC(N)=O` (H-VNDNTLFKAMIFNG-NH2), “inactive”. In the case of `CC[C@H](C)[C@H](NC(=O)[C@H](C)NC(=O)[C@H](Cc1c[nH]c2ccccc12)NC(=O)[C@H](CCCCN)NC(=O)[C@H](Cc1ccccc1)NC(=O)[C@H](CC(C)C)NC(=O)[C@@H](NC(=O)[C@H](CC(N)=O)NC(=O)[C@H](CC(=O)O)NC(=O)[C@H](CC(N)=O)NC(=O)[C@@H](N)C(C)C)[C@@H](C)O)C(=O)N[C@@H](Cc1ccccc1)C(=O)N[C@@H](CC(N)=O)C(=O)NCC(N)=O` (H-VNDNTLFKWAIFNG-NH2) it was “inactive”. In the case of `CSCC[C@H](NC(=O)[C@H](Cc1c[nH]c2ccccc12)NC(=O)[C@H](CCCCN)NC(=O)[C@H](Cc1ccccc1)NC(=O)[C@H](CC(C)C)NC(=O)[C@@H](NC(=O)[C@H](CC(N)=O)NC(=O)[C@H](CC(=O)O)NC(=O)[C@H](CC(N)=O)NC(=O)[C@@H](N)C(C)C)[C@@H](C)O)C(=O)N[C@@H](C)C(=O)N[C@@H](Cc1ccccc1)C(=O)N[C@@H](CC(N)=O)C(=O)NCC(N)=O` (H-VNDNTLFKWMAFNG-NH2), the inhibition result is “inactive”. Under `CC[C@H](C)[C@H](NC(=O)[C@H](CCSC)NC(=O)[C@H](Cc1c[nH]c2ccccc12)NC(=O)[C@H](CCCCN)NC(=O)[C@H](Cc1ccccc1)NC(=O)[C@H](CC(C)C)NC(=O)[C@@H](NC(=O)[C@H](CC(N)=O)NC(=O)[C@H](CC(=O)O)NC(=O)[C@H](CC(N)=O)NC(=O)[C@@H](N)C(C)C)[C@@H](C)O)C(=O)N[C@@H](C)C(=O)N[C@@H](CC(N)=O)C(=O)NCC(N)=O` (H-VNDNTLFKWMIANG-NH2) stands “inactive”; under `CC[C@H](C)[C@H](NC(=O)[C@H](CCSC)NC(=O)[C@H](Cc1c[nH]c2ccccc12)NC(=O)[C@H](CCCCN)NC(=O)[C@H](Cc1ccccc1)NC(=O)[C@H](CC(C)C)NC(=O)[C@@H](NC(=O)[C@H](CC(N)=O)NC(=O)[C@H](CC(=O)O)NC(=O)[C@H](CC(N)=O)NC(=O)[C@@H](N)C(C)C)[C@@H](C)O)C(=O)N[C@@H](Cc1ccccc1)C(=O)N[C@@H](C)C(=O)NCC(N)=O` (H-VNDNTLFKWMIFAG-NH2), “inactive”. In the case of `CC[C@H](C)[C@H](NC(=O)[C@H](CCSC)NC(=O)[C@H](Cc1c[nH]c2ccccc12)NC(=O)[C@H](CCCCN)NC(=O)[C@H](Cc1ccccc1)NC(=O)[C@H](CC(C)C)NC(=O)[C@@H](NC(=O)[C@H](CC(N)=O)NC(=O)[C@H](CC(=O)O)NC(=O)[C@H](CC(N)=O)NC(=O)[C@@H](N)C(C)C)[C@@H](C)O)C(=O)N[C@@H](Cc1ccccc1)C(=O)N[C@@H](CC(N)=O)C(N)=O` (H-VNDNTLFKWMIFN-NH2) it was “inactive”; in that of `CC[C@H](C)[C@H](NC(=O)[C@H](CCSC)NC(=O)[C@H](Cc1c[nH]c2ccccc12)NC(=O)[C@H](CCCCN)NC(=O)[C@H](Cc1ccccc1)NC(=O)[C@H](CC(C)C)NC(=O)[C@@H](NC(=O)[C@H](CC(N)=O)NC(=O)[C@H](CC(=O)O)NC(=O)[C@H](CC(N)=O)NC(=O)[C@@H](N)C(C)C)[C@@H](C)O)C(=O)N[C@@H](Cc1ccccc1)C(=O)N[C@@H](CC(N)=O)C(=O)N[C@@H](C)C(N)=O` (H-VNDNTLFKWMIFNA-NH2), “Active”; in that of `CC[C@H](C)[C@H](NC(=O)[C@H](CCSC)NC(=O)[C@H](Cc1c[nH]c2ccccc12)NC(=O)[C@H](CCCCN)NC(=O)[C@H](Cc1ccccc1)NC(=O)[C@H](CC(C)C)NC(=O)[C@@H](NC(=O)[C@H](CC(N)=O)NC(=O)[C@H](CC(=O)O)NC(=O)[C@H](CC(N)=O)NC(=O)[C@@H](NC(=O)[C@H](CC(=O)O)NC(=O)[C@H](CCC(=O)O)NC(=O)[C@H](CCC(=O)O)NC(=O)[C@@H](NC(=O)[C@@H](N)Cc1c[nH]c2ccccc12)[C@@H](C)O)C(C)C)[C@@H](C)O)C(=O)N[C@@H](Cc1ccccc1)C(=O)N[C@@H](CC(N)=O)C(=O)NCC(N)=O` (H-WTEEDVNDNTLFKWMIFNG-NH2), “inactive”.
